Experimental data reported in patent publication US9578875B2, “Fungicidal composition” (priority 2013, dated 2017).
Like-named read-outs stand apart in the source and are kept apart here.

Experiments:
[1] = type: physicochemical
Procedure: The following compositions comprising cyazofamid and Mancozeb were prepared, with the different stabilizers substituted. The AHS stability of these formulations was tested.
The formulation prepared according to Example 1 (adjusted for purity of the technical material) was modified to replace the HMT content with 1.0% sodium carbonate. The stability of both the formulations were tested, with the following results: […]

[2] = type: physicochemical; settings: for Cyazofamid Technical, 0 Day / Cyazofamid Technical, 14 Day: storage at 54° C.
Procedure: Experiment: Cyazofamid technical was mixed with Na2CO3 (Inorganic base) in one batch and with HMT (organic base) in the other. Both the samples were kept at 54° C. for 14 days. After 14 days, the cyazofamid content in both the samples was analyzed. […] The stability of cyazofamid technical was tested in the presence of an inorganic base and compared with the stability in the presence of an organic base, with the following results: […]

[3] = Example 1 formulation with HMT replaced by 1.0% Na2CO3
[4] = Example 1 formulation with HMT replaced by 1.0% Na2CO3, 14 D AHS at 54° C.
[5] = Example 1 formulation, presence of 1.0% HMT
[6] = Example 1 formulation, presence of 1.0% HMT, 14 D AHS at 54° C.

Compound	Active content in formulation, 0 D [1, 3]	Active content in formulation, 14 D AHS at 54° C. [1, 4]	Degradation (%) [1, 4]	Active content in formulation, 0 D [1, 5]	Active content in formulation, 14 D AHS at 54° C. [1, 6]	Degradation (%) [1, 6]	Cyazofamid Technical, 0 Day ([2]; HMT 0.5%)	Cyazofamid Technical, 14 Day ([2]; HMT 0.5%)	Cyazofamid Technical, 0 Day ([2]; Na2CO3 0.5%)	Cyazofamid Technical, 14 Day ([2]; Na2CO3 0.5%)	Cyazofamid content, 0 D ([2]; Presence of 0.5% HMT)	Cyazofamid content, 14 D AHS at 54° C. ([2]; Presence of 0.5% HMT)	Cyazofamid content, 0 D ([2]; Presence of 0.5% Na2CO3)	Cyazofamid content, 14 D AHS at 54° C. ([2]; Presence of 0.5% Na2CO3)	Degradation (%) ([1]; 14 day)	drop in cyazofamid concentration upon accelerated storage (2 weeks at 54° C.)	Degradation with respect to storage at ambient condition (14 days)	Purity after 14 days of storage at 10° C. (glass bottle, air tight plug and cap, 10° C., 14 days)	Purity after 14 days of storage at 54 ± 2° C. (glass bottle, air tight plug and cap, 54 ± 2° C., 14 days)	Purity after 14 days, Room temperature (30-35° C.) (glass bottle, air tight plug and cap, room temperature (30-35° C.), 14 days)
Mancozeb	70.67 %, w/w	70.49 %, w/w	0.25%	70.34 %, w/w	70.14 %, w/w	0.28%	–	–	–	–	–	–	–	–	–	–	–	–	–	–
Cc1ccc(-c2c(Cl)nc(C#N)n2S(=O)(=O)N(C)C)cc1 [Cyazofamid, 4-chloro-2-cyano-N,N-dimethyl-5-p-tolylimidazole-1-sulfonamide]	6.27 %, w/w	5.57 %, w/w	–	5.59 %, w/w	5.43 %, w/w	–	95.10	94.27	95.98	92.38	95.1 %, w/w	94.27 %, w/w	95.98 %, w/w	92.38 %, w/w	11.16%	12.5%	12.87%	95.36	83.25	95.55
